Laboratory results: the NIST ThermoML archive (doi:10.1016/j.fluid.2019.05.003)

Test: xn = mol fraction of the nth substance listed
Settings: 101 kPa, Liquid; for viscosity: Falling or rolling sphere viscometry; for mass density: Vibrating tube method

CC[N+](C)(C)CCO.[Br-] [ethyl(2-hydroxyethyl)dimethylammonium bromide] + O
Settings | mass density [kg/m3] | viscosity [mPa·s]
298.15 K, x1 = 0.026 | 1061.1 | 1.249
298.15 K, x1 = 0.049 | 1103.4 | 1.613
298.15 K, x1 = 0.068 | 1132.6 | 2.066
298.15 K, x1 = 0.086 | 1155.4 | 2.594
298.15 K, x1 = 0.119 | 1190.7 | 4.028
298.15 K, x1 = 0.156 | 1220 | 6.186
298.15 K, x1 = 0.185 | 1238.4 | 9.494
298.15 K, x1 = 0.214 | 1254.1 | 13
298.15 K, x1 = 0.257 | 1273.4 | 20.35
298.15 K, x1 = 0.319 | 1293.9 | 35.33
303.15 K, x1 = 0.026 | 1059.2 | 1.117
303.15 K, x1 = 0.049 | 1101.3 | 1.463
303.15 K, x1 = 0.068 | 1130.3 | 1.836
303.15 K, x1 = 0.086 | 1153 | 2.292
303.15 K, x1 = 0.119 | 1188.1 | 3.487
303.15 K, x1 = 0.156 | 1217.2 | 5.347
303.15 K, x1 = 0.185 | 1235.6 | 8.22
303.15 K, x1 = 0.214 | 1251.3 | 11.13
303.15 K, x1 = 0.257 | 1270.5 | 17.24
303.15 K, x1 = 0.319 | 1290.9 | 29.38
308.15 K, x1 = 0.026 | 1057.2 | 1.017
308.15 K, x1 = 0.049 | 1099.1 | 1.296
308.15 K, x1 = 0.068 | 1127.9 | 1.645
308.15 K, x1 = 0.086 | 1150.4 | 2.046
308.15 K, x1 = 0.119 | 1185.4 | 3.095
308.15 K, x1 = 0.156 | 1214.5 | 4.593
308.15 K, x1 = 0.185 | 1232.8 | 7.127
308.15 K, x1 = 0.214 | 1248.4 | 9.581
308.15 K, x1 = 0.257 | 1267.6 | 14.63
308.15 K, x1 = 0.319 | 1288 | 24.38
313.15 K, x1 = 0.026 | 1055.1 | 0.917
313.15 K, x1 = 0.049 | 1096.7 | 1.171
313.15 K, x1 = 0.068 | 1125.4 | 1.484
313.15 K, x1 = 0.086 | 1147.9 | 1.839
313.15 K, x1 = 0.119 | 1182.7 | 2.771
313.15 K, x1 = 0.156 | 1211.7 | 4.112
313.15 K, x1 = 0.185 | 1229.9 | 6.185
313.15 K, x1 = 0.214 | 1245.5 | 8.263
313.15 K, x1 = 0.257 | 1264.6 | 12.43
313.15 K, x1 = 0.319 | 1285 | 20.45
318.15 K, x1 = 0.026 | 1052.6 | 0.841
318.15 K, x1 = 0.049 | 1093.9 | 1.068
318.15 K, x1 = 0.068 | 1122.8 | 1.35
318.15 K, x1 = 0.086 | 1145.2 | 1.663
318.15 K, x1 = 0.119 | 1179.9 | 2.486
318.15 K, x1 = 0.156 | 1208.8 | 3.655
318.15 K, x1 = 0.185 | 1227 | 5.378
318.15 K, x1 = 0.214 | 1242.5 | 7.16
318.15 K, x1 = 0.257 | 1261.7 | 10.68
318.15 K, x1 = 0.319 | 1282 | 17.3
323.15 K, x1 = 0.026 | – | 0.775
323.15 K, x1 = 0.049 | – | 0.98
323.15 K, x1 = 0.068 | – | 1.234
323.15 K, x1 = 0.086 | – | 1.513
323.15 K, x1 = 0.119 | – | 2.242
323.15 K, x1 = 0.156 | – | 3.307
323.15 K, x1 = 0.185 | – | 4.688
323.15 K, x1 = 0.214 | – | 6.248
323.15 K, x1 = 0.257 | – | 9.249
323.15 K, x1 = 0.319 | – | 14.91
